According to US5266594A, “Inhibitors of nitric oxide synthase and use thereof to prevent glutamate neurotoxicity” (priority 1992, dated 1993):
pKi: −log10 of the molar value.

Experiments:
brain NOS = brain NOS activity in cerebellar homogenates after i.p. administration; type: in vivo, rat (Sprague-Dawley)
Protocol: Adult male rats (Sprague-Dawley, 3 per group) were injected intraperitoneally (i.p.) twice daily with 5 mg/kg or 50 mg/kg of NO2 Arg, MeArg, arginine or vehicle twice a day for four consecutive days. The animals were sacrificed by decapitation 14 hours following the last injection.
Cerebellar homogenates were used to determine NOS activity.

NOS protein = test: Western blot of NOS protein in brain extracts after i.p. administration; type: in vivo, rat; details: i.p. administration of 5 and 50 mg/kg
Protocol: To determine whether NO2 Arg administration alters levels of NOS protein, Western blot analysis of brain extracts were performed following the i.p. administration of both 5 and 50 mg/kg of NO2 Arg. Soluble cerebellar homogenates (100 μg) were separated on a 7.5% SDS-polyacrylamide gel and transferred to nitrocellulose. Lanes were incubated overnight with affinity purified NOS antibody (1:2500) at room temperature, and bands were visualized with an alkaline phosphatase linked secondary antibody. […] Therefore, the loss of NOS activity following peripheral administration of NO2 Arg is not attributed to inhibition of the synthesis of enzyme protein.

NOS = details: cited from earlier work
[1] = tested on: brain-endothelial and macrophage NOS; details: cited from earlier work

In the case of `N=C(NCCC[C@H](N)C(=O)O)N[N+](=O)[O-]` [NO2 Arg, L-N^ω -nitroarginine], the “inhibition of brain NOS” value (brain NOS; 5 mg/kg i.p. twice daily, four consecutive days, 14 hours after last injection) was “about 50%”, the “inhibition of enzyme activity in the brain after peripheral administration” value (brain NOS; 5 mg/kg, peripheral administration) was “markedly inhibits enzyme activity in the brain” and the “inhibition of brain NOS enzyme activity” value (brain NOS; 50 mg/kg i.p. twice daily, four consecutive days, 14 hours after last injection) was 95%. The “inhibition of NOS activity, repeated administration for 7 days versus 4 days” value (brain NOS; 7 days) was “no greater inhibition of NOS activity than 4 days of treatment”, the “nature of inhibition of NOS in vivo” value (brain NOS; FIG. 3, before and after dialysis) was “irreversible inhibition” and the “effect of dialysis on enzyme activity” value (brain NOS; crude supernatant from treated animals dialyzed for 24 hours) was “only slightly increases enzyme activity”. For the same molecule, the “time for which brain NOS activity does not return to normal levels” value (brain NOS; following 90% inhibition with 50 mg/kg) was “at least 5 days”, the “reduction of enzyme activity” value (brain NOS; single injection of 50 mg/kg) was 50% and the “alterations in NOS protein” value (NOS protein) was “No alterations in NOS protein were observed”. The pKi (NOS; Dwyer et al. (1991), read-out: Ki, inhibition of NOS activity of purified enzyme preparations) was 6.70, the “mode of inhibition of NOS” value (NOS; Moore (1990)) was “competitive inhibitor of NOS” and the “inhibition of brain-endothelial versus macrophage enzyme” value ([1]; Gross et al. (1990)) was “weaker inhibitor of the macrophage enzyme”. The “greater potency in inhibiting brain-endothelial than macrophage NOS” value ([1]; incubations at 37° C. for about 1/2 hour, 30 min) was 10-300 fold.
